Values of other authors in article PMC2923200, “Identification of a Cardiac Specific Protein Transduction Domain by In Vivo Biopanning Using a M13 Phage Peptide Display Library in Mice” (PLoS ONE, 2010).

Conditions: in vitro phage display screening by other investigators
From the text: However, it is unclear how the ability of CTP to interact with these cellular components in vitro facilitates transduction of cardiac specific tissue in vivo. We currently are examining whether the transduction process is energy independent as well as whether it involves endocytosis. Also, the s ...

- affinity for binding to apatite-based, bone-like minerals: high affinity
- affinity for binding to two specific sulfated carbohydrates: high affinity
Sequence: APWHLSSQYSRT [CTP]
